A value given as a limit tells only on which side of the number the result lay.

Data set [1] in a line: Drug-forming properties of paclitaxel palmitate preparations (dose forms and preparation methods). Type of data set: physicochemical. Particulars: drug loading 3 mg/mL. Here is the method: 300 mg paclitaxel palmitate, 3.5 g high-purity egg yolk lecithin (EPCS), and 0.3 g DSPE-PEG2000 were weighed out, added with 3 g propylene glycol, and dissolved at 65° C. to obtain an organic phase; 85 g water was weighed out, and dissolved by stirring and heated at 65° C. to obtain an aqueous phase. The organic phase was injected into the aqueous phase by stirring, and mixed to obtain a crude liposome, which was then placed in an extruder, and sequentially extruded through an extrusion film with a pore size of 0.4 μm, 0.2 μm, 0.1 μm, and 0.05 μm, and added with water to 100 ml. pH was adjusted to 4.5 with hydrochloric acid. The filter was sterilized by filtration through a 0.22 μm filter to obtain liposomal paclitaxel palmitate formulations.
0.3 g paclitaxel palmitate and 0.3 g (or 1.5 g, or 3 g, or 6 g, or 9 g) polyethylene glycol monomethyl ether-polylactic acid were weighed out and dissolved in an appropriate amount of acetonitrile. […]

A short description of data set [2]: Solubility in medium chain oil. It counts as physicochemical. Particulars: oil or lipid.

As for `CC(=O)O[C@H]1C(=O)[C@@]2(C)[C@H]([C@H](OC(=O)c3ccccc3)[C@]3(O)C[C@H](OC(=O)[C@H](O)[C@@H](NC(=O)c4ccccc4)c4ccccc4)C(C)=C1C3(C)C)[C@]1(OC(C)=O)CO[C@@H]1C[C@@H]2O` [paclitaxel, Paclitaxel], the appearance entry in data set [1] is on record as “completely clarified”. Besides, the solubility in data set [2] was below 5000 µg/mL.

The solubility is how much of the substance goes into solution per volume. Read a low solubility as a poorly soluble substance.

For the origin of these results see US20190076357A1 (SHANGHAI WEI ER BIOPHARMACEUTICAL TECHNOLOGY CO., LTD., priority 2016, published 2019).
